Experimental data: patent publication US11072616B2, “Cyclic peptides targeting alpha-4-beta-7 integrin” (Zealand Pharma A/S, priority 2015, dated 2021)

What was measured:
[1] = tested on: integrin alpha-4-beta-7-expressing T lymphocytes; experiment: In vivo T lymphocyte trafficking analyses in DSS-treated mice (single dose); design: species or system C57Bl/6 mice; details: 5-6 h
Procedure: In Vivo T Lymphocyte Trafficking Analyses
Animals. Female C57131/6 mice (Charles River, St-Constant, Qc), weighting 16-19 g at delivery were used for this study. Following arrival in the animal facility, all animals were subjected to a general health evaluation. An acclimation period of 7-14 days was allowed before the beginning of the study.
Administration of DSS. Dextran sulfate sodium (DSS) was administered to C57Bl/6 mice through addition to their drinking water at 2-3%. Mice accessed the DSS-treated water ad libitum over a 5-day period. Body weight and disease activity index (“DAI”) were measured on Day 5 in order to distribute DSS-treated animals in two uniform groups prior to dosing. Specific symptoms associated with colitis were scored based on the severity of each particular symptoms: 1—blood in stool (negative hemoccult, positive hemoccult, blood traces in stool visible, rectal bleeding); 2—stool consistency (normal, soft but still formed, very soft, diarrhea); 3—posture and fur (normal; ruffled fur; ruffled fur combined to slight hunched posture and slight dehydration; ruffled fur combined to hunched posture, dehydration and altered walking; moribund (euthanasia is mandatory before the animal reach this point). The overall DAI score was the sum of the three parameters (maximum score of 9). DAI assessment was performed on Day 5 only (prior to dosing). […]

[2] = in vivo
[3] = biological target: T1, CYP1A2 (Homo sapiens, UniProt P05177); experiment: in vitro; details: microsomes
T1 sequence (P05177 1-516): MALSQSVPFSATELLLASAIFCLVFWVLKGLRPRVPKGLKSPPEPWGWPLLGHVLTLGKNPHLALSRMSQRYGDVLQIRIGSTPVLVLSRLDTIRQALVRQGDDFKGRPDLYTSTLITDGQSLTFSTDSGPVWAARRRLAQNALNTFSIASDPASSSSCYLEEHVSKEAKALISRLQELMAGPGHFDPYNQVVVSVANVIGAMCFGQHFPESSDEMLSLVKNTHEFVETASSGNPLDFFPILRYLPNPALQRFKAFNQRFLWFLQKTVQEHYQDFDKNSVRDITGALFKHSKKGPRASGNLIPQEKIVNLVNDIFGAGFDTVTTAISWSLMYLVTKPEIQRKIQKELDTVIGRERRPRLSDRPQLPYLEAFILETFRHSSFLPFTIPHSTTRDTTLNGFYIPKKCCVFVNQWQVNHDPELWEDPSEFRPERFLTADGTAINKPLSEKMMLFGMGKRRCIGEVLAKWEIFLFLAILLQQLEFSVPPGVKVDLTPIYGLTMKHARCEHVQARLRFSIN
Procedure: (§1) Cytochrome P450 Inhibition Assay
(§2) Analyses were performed using standard LC/MS/MS protocols.

[4] = biological target: CYP2C9 (Homo sapiens, UniProt P11712); experiment: in vitro; details: microsomes
Procedure: as §1, §2

[5] = biological target: CYP2D6 (Homo sapiens, UniProt P10635); experiment: in vitro; details: microsomes
Procedure: as §1, §2

[6] = biological target: CYP3A4 (Homo sapiens, UniProt P08684); experiment: in vitro; details: microsomes
Procedure: as §1, §2

[7] = Plasma protein binding, equilibrium dialysis, rat plasma; details: for fraction unbound at 5 h, 1 microM: 50% plasma; for % recovery: rat plasma dialysis
[8] = Plasma protein binding, equilibrium dialysis, mouse plasma; details: for fraction unbound at 5 h, 1 microM: 50% plasma
[9] = not given; remark: listed apart in the source

Sequence of CYP2C9 (P11712 whole entry): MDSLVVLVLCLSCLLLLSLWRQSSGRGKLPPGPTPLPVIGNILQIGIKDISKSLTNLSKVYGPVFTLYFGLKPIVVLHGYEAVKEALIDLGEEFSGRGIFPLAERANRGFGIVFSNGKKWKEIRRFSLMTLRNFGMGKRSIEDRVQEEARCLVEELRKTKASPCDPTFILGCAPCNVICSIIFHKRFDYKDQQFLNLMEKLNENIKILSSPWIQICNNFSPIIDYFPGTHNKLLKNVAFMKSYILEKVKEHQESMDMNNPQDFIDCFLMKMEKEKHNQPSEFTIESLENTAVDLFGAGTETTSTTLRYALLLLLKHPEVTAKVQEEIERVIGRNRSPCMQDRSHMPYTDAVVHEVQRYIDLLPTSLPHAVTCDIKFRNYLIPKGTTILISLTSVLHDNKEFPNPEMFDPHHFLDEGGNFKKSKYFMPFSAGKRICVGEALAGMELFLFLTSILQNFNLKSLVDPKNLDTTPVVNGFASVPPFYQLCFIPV
Sequence of CYP2D6 (P10635 whole entry): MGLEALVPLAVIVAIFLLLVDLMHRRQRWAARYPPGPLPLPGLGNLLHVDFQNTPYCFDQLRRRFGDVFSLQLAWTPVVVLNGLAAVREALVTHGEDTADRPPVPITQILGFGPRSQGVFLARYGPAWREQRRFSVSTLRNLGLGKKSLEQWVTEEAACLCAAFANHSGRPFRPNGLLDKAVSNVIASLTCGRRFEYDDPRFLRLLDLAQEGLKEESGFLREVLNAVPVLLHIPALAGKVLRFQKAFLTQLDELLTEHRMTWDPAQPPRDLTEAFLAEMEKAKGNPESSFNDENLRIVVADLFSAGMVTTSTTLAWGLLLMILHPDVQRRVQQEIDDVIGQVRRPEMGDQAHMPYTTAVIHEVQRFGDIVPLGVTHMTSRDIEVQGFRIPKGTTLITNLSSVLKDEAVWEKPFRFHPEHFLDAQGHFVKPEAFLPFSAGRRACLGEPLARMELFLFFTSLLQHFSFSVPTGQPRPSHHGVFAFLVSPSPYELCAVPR
Sequence of CYP3A4 (P08684 whole entry): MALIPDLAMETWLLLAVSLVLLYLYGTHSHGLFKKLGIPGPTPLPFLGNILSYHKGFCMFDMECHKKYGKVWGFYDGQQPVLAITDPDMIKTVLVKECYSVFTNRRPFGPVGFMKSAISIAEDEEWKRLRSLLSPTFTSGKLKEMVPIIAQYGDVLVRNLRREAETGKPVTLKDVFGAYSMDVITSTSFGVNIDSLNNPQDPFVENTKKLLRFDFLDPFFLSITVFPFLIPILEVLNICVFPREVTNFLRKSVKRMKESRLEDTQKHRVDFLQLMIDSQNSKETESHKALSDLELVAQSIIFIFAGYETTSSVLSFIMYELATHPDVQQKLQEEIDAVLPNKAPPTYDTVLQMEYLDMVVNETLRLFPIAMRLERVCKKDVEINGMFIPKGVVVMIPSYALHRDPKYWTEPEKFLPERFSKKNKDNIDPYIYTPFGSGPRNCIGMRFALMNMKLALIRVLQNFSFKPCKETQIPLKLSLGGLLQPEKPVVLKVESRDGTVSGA

Row | IC50 ([3]; human) [µM] | IC50 ([4]; human) [µM] | IC50 ([5]; human) [µM] | IC50 ([6]; human) [µM] | SMILES | oral bioavailability / absorption (in words) ([2]; mouse, po) | Control buffer/Buffer at 0.1 uM Cdonor/Creceiver [8] [%] | IC50 [3] [µM] | IC50 [4] [µM] | IC50 [5] [µM] | IC50 [6] [µM] | % unbound (Cbuffer/Cplasma) Mouse plasma 1 [%] | % unbound (Cbuffer/Cplasma) Mouse plasma 2 [%] | % unbound (Cbuffer/Cplasma) Mouse plasma 3 [%] | % unbound (Cbuffer/Cplasma) Mouse plasma Average [%] | % unbound (Cbuffer/Cplasma) Rat plasma 1 [9] [%] | % unbound (Cbuffer/Cplasma) Rat plasma 2 [9] [%] | % unbound (Cbuffer/Cplasma) Rat plasma 3 [9] [%] | % unbound (Cbuffer/Cplasma) Rat plasma Average [9] [%] | % recovery [7] [%] | other results
1 |  |  |  |  | CC(C)C[C@@H]1NC(=O)CN(C)C(=O)[C@H](Cc2ccc(O)cc2)NC(=O)[C@@H]2CCCN2[C@H](C(=O)NC(C)(C)C)[C@H](C)NC(=O)[C@H]([C@@H](C)O)NC(=O)[C@H](CC(=O)O)NC1=O [ET2154] | low oral bioavailability |  |  |  |  |  |  |  |  |  |  |  |  |  |  | homing of T lymphocytes to the MLN ([1]; 200 mg/kg single oral dose): significant and robust attenuation of homing to the MLN
2 | > 15 | > 15 | > 15 | > 15 | CC(C)C[C@@H]1NC(=O)[C@H](Cc2c[nH]c3ccccc23)NC(=O)[C@@H]2CCCN2[C@H](C(=O)NC(C)(C)C)[C@H](C)NC(=O)[C@H]([C@@H](C)O)NC(=O)[C@H](CC(=O)O)NC1=O [ET00762] |  | 79 |  |  |  |  |  |  |  |  |  |  |  |  |  | recovery at 5 hours, 1 microM ([7]; Sprague-Dawley, rat): 94%; fraction unbound at 5 h, 1 microM ([7]; Sprague-Dawley, rat, % unbound (Cbuffer/Cplasma) Rat plasma 1, replicate 1, 1 microM, 5 h): 0.833; fraction unbound at 5 h, 1 microM ([7]; Sprague-Dawley, rat, % unbound (Cbuffer/Cplasma) Rat plasma 2, replicate 2, 1 microM, 5 h): 0.761; fraction unbound at 5 h, 1 microM ([7]; Sprague-Dawley, rat, % unbound (Cbuffer/Cplasma) Rat plasma 3, replicate 3, 1 microM, 5 h): 0.702; fraction unbound at 5 h, 1 microM ([7]; Sprague-Dawley, rat, % unbound (Cbuffer/Cplasma) Rat plasma Average, average of 3 replicates): 0.765; recovery at 5 hours, 1 microM ([8]; CD-1, mouse): 150%; fraction unbound at 5 h, 1 microM ([8]; CD-1, mouse, % unbound (Cbuffer/Cplasma) Mouse plasma 1, replicate 1, 1 microM, 5 h): 0.806; fraction unbound at 5 h, 1 microM ([8]; CD-1, mouse, % unbound (Cbuffer/Cplasma) Mouse plasma 2, replicate 2, 1 microM, 5 h): 0.744; fraction unbound at 5 h, 1 microM ([8]; CD-1, mouse, % unbound (Cbuffer/Cplasma) Mouse plasma 3, replicate 3, 1 microM, 5 h): 0.757; fraction unbound at 5 h, 1 microM ([8]; CD-1, mouse, % unbound (Cbuffer/Cplasma) Mouse plasma Average, average of 3 replicates): 0.769; recovery at 5 hours, 0.1 uM ([8]; buffer/buffer equilibrium dialysis control (HTDialysis)): 99%
3 | > 15 | > 15 | > 15 | 0.89 | CC[C@H](C)[C@@H]1NC(=O)[C@H](CCO)NC(=O)[C@H](CC(C)C)NC(=O)[C@H](Cc2ccc3ccccc3c2)NC(=O)[C@@H]2CCCN2[C@H](C(=O)NC(C)(C)C)[C@H](C)NC1=O [ET01842-01] |  |  |  |  |  |  |  |  |  |  |  |  |  |  |  | 
4 |  |  |  |  | CC(C)C[C@@H]1NC(=O)[C@H](Cc2ccccc2)NC(=O)[C@@H]2CCCN2[C@H](C(=O)NC(C)(C)C)[C@H](C)NC(=O)[C@H]([C@@H](C)O)NC(=O)[C@H](CC(=O)O)NC1=O [ET01792] | high oral bioavailability | 80 | > 15 | > 15 | > 15 | > 15 | 64.8 | 52.9 | 67.9 | 61.9 | 82.9 | 77.3 | 79.5 | 79.9 | 97 | homing of T lymphocytes to the MLN ([1]; 100 mg/kg single oral dose): significant reduction of homing to the MLN; exposure (AUC0-tlast) ([2]; mouse, po, 40 mg/kg): 589 ng·h/mL; maximum plasma concentration after the first dose ([2]; mouse, po, 48 mg/kg): ~1,600 ng/ml; % recovery ([8]; mouse plasma dialysis): 130%
5 |  |  |  |  | CC(C)C[C@@H]1NC(=O)[C@H](Cc2ccc(-c3ccccc3)cc2)NC(=O)[C@@H]2CCCN2[C@H](C(=O)NC(C)(C)C)[C@H](C)NC(=O)[C@H]([C@@H](C)O)NC(=O)[C@H](CC(=O)O)NC1=O [ET01813] |  | 94 | > 15 | > 15 | > 15 | > 15 | 24.7 | 22.2 | 18.8 | 21.9 | 15.8 | 20.1 | 21.7 | 19.2 | 89 | CLs ([2]; male, CD-1, mouse, iv, 5 mg/kg): 114.8 mL/min/kg; calculated oral bioavailability ([2]; mouse): ~1%; terminal half-life ([2]; mouse): ~2 h; tmax ([2]; mouse, po, 40 mg/kg): 5 min
